Measurements taken from patent US6858591B2, “Antibiotic AA 896 analogs” (Wyeth Holdings Corporation, priority 2001, dated 2005).
Values after ≈ are worked out from the molar mass of the structure shown. Where two headings read alike, the source gives them in different places.

Assays:
Assay in all cases: In vitro MIC, broth dilution
Format in all cases: cell-based
CNS GC 4538 = tested on: CNS GC 4538
How it was run: (§1)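 Test strains at 5×10^5 CFU/ml face antibiotic from 64 down to 0.06 μg/ml in Mueller-Hinton II, NCCLS broth dilution. MIC is read as the lowest growth-inhibiting concentration after 18 h at 35 °C.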

E. faecalis GC 4555 = details: E. faecalis GC 4555
How it was run: as §1

E. faecalis GC 2242 = details: E. faecalis GC 2242
How it was run: as §1

S. aureus GC 2216 = details: S. aureus GC 2216
How it was run: as §1

CNS GC 4547 = tested on: CNS GC 4547
How it was run: as §1

S. aureus GC 4536 = details: S. aureus GC 4536
How it was run: as §1

CNS GC 4537 = tested on: CNS GC 4537
How it was run: as §1

S. aureus GC 1131 = details: S. aureus GC 1131
How it was run: as §1

E. faecalis GC 842 = details: E. faecalis GC 842
How it was run: as §1

E. coli GC 4560 = details: E. coli GC 4560
S. marcescens GC 4077 = details: S. marcescens GC 4077
E. coli GC 2203 = details: E. coli GC 2203
M. morganii GC 4531 = details: M. morganii GC 4531
P. aeruginosa GC 4532 = details: P. aeruginosa GC 4532
K. pneumoniae GC 4534 = details: K. pneumoniae GC 4534
C. albicans GC 3066 = details: C. albicans GC 3066
E. coli GC 4559 = details: E. coli GC 4559
E. coli GC 3226 = details: E. coli GC 3226
E. cloacae GC 3783 = details: E. cloacae GC 3783
P. aeruginosa GC 2214 = details: P. aeruginosa GC 2214
[1] = Enterococcus faecalis, GC4555, read-out: MIC
[2] = Enterococcus faecalis, GC2242, read-out: MIC
[3] = Staphylococcus aureus, GC2216, read-out: MIC
[4] = Staphylococcus aureus, GC4536, read-out: MIC
[5] = Staphylococcus aureus, GC1131, read-out: MIC
[6] = Enterococcus faecalis, GC842, read-out: MIC
[7] = Escherichia coli, GC4560, read-out: MIC
[8] = Serratia marcescens, GC4077, read-out: MIC
[9] = Escherichia coli, GC2203, read-out: MIC
[10] = Morganella morganii, GC4531, read-out: MIC
[11] = Pseudomonas aeruginosa, GC4532, read-out: MIC
[12] = Klebsiella pneumoniae, GC4534, read-out: MIC
[13] = Candida albicans, GC3066, read-out: MIC
[14] = Escherichia coli, GC4559, read-out: MIC
[15] = Escherichia coli, GC3226, read-out: MIC
[16] = Enterobacter cloacae, GC3783, read-out: MIC
[17] = Pseudomonas aeruginosa, GC2214, read-out: MIC

CCOC(=O)C(NCCCNC(=O)[C@H](CC(C)C)NC(=O)[C@H](CCCNC(=N)N[N+](=O)[O-])NC(=O)N[C@H](C(=O)OCc1ccccc1)C(C)C)[C@@H](OC(C)=O)[C@H]1O[C@@H](n2ccc(=O)[nH]c2=O)[C@H](OC(C)=O)[C@@H]1OC(C)=O (stereo partly drawn) [Example 42, 1-Benzyl 17-ethyl (2S,6S,9S)-16-{(R)-(acetyloxy)[(2R,3R,4R,5R)-3,4-bis(acetyloxy)-5-(2,4-dioxo-3,4-dihydro-1(2H)-pyrimidinyl)tetrahydro-2-furanyl]methyl}-6-(3-{[(2,2-dioxido-2lambda˜1˜-diazanyl)(imino)methyl]amino}propyl)-9-isobutyl-2-isopropyl-4,7,10-trioxo-3,5,8,11,15-pentaazaheptadecane-1,17-dioate]
MIC (CNS GC 4538; CNS GC 4538): >128 µg/mL | MIC (E. faecalis GC 4555): 128 µg/mL (≈ 119 µM) | MIC (E. faecalis GC 2242): 64 µg/mL (≈ 59.5 µM) | MIC (S. aureus GC 2216): >128 µg/mL | MIC (CNS GC 4547; CNS GC 4547): 128 µg/mL (≈ 119 µM) | MIC (S. aureus GC 4536): >128 µg/mL | MIC (CNS GC 4537; CNS GC 4537): >128 µg/mL | MIC (S. aureus GC 1131): >128 µg/mL | MIC (E. faecalis GC 842): 128 µg/mL (≈ 119 µM) | MIC (E. coli GC 4560): 128 µg/mL (≈ 119 µM) | MIC (S. marcescens GC 4077): 128 µg/mL (≈ 119 µM) | MIC (E. coli GC 2203): >128 µg/mL | MIC (M. morganii GC 4531): 128 µg/mL (≈ 119 µM) | MIC (P. aeruginosa GC 4532): 128 µg/mL (≈ 119 µM) | MIC (K. pneumoniae GC 4534): 128 µg/mL (≈ 119 µM) | MIC (C. albicans GC 3066): 128 µg/mL (≈ 119 µM) | MIC (E. coli GC 4559): >128 µg/mL | MIC (E. coli GC 3226): 128 µg/mL (≈ 119 µM) | MIC (E. cloacae GC 3783): 128 µg/mL (≈ 119 µM) | MIC (P. aeruginosa GC 2214): 128 µg/mL (≈ 119 µM)

CCOC(=O)C(NCCCNC(=O)[C@@H](NC(=O)[C@H](CCCNC(=N)N)NC(=O)N[C@H](C(=O)O)C(C)C)[C@@H](O)C(C)C)[C@@H](O)[C@H]1O[C@@H](n2ccc(=O)[nH]c2=O)[C@H](OC(C)=O)[C@@H]1OC(C)=O (stereo partly drawn) [Example 43, (2S,6S,9S)-6-(3-{[Amino(imino)methyl]amino}propyl)-16-[(R)-[(2R,3R,4R,5R)-3,4-bis(acetyloxy)-5-(2,4-dioxo-3,4-dihydro-1(2H)-pyrimidinyl)tetrahydro-2-furanyl](hydroxy)methyl]-9-[(1S)-1-hydroxy-2-methylpropyl]-2-isopropyl-4,7,10,17-tetraoxo-18-oxa-3,5,8,11,15-pentaazaicosan-1-oic acid]
MIC (CNS GC 4538; CNS GC 4538, read-out: MIC): > 128 µg/mL | MIC (E. faecalis GC 4555; [1]): > 128 µg/mL | MIC (E. faecalis GC 2242; [2]): > 128 µg/mL | MIC (S. aureus GC 2216; [3]): > 128 µg/mL | MIC (CNS GC 4547; CNS GC 4547, read-out: MIC): > 128 µg/mL | MIC (S. aureus GC 4536; [4]): > 128 µg/mL | MIC (CNS GC 4537; CNS GC 4537, read-out: MIC): > 128 µg/mL | MIC (S. aureus GC 1131; [5]): > 128 µg/mL | MIC (E. faecalis GC 842; [6]): > 128 µg/mL | MIC (E. coli GC 4560; [7]): > 128 µg/mL | MIC (S. marcescens GC 4077; [8]): > 128 µg/mL | MIC (E. coli GC 2203; [9]): > 128 µg/mL | MIC (M. morganii GC 4531; [10]): > 128 µg/mL | MIC (P. aeruginosa GC 4532; [11]): 128 µg/mL (≈ 140 µM) | MIC (K. pneumoniae GC 4534; [12]): > 128 µg/mL | MIC (C. albicans GC 3066; [13]): 128 µg/mL (≈ 140 µM) | MIC (E. coli GC 4559; [14]): > 128 µg/mL | MIC (E. coli GC 3226; [15]): > 128 µg/mL | MIC (E. cloacae GC 3783; [16]): > 128 µg/mL | MIC (P. aeruginosa GC 2214; [17]): 128 µg/mL (≈ 140 µM)

COc1ccc(Cn2c(=O)ccn([C@@H]3OC([C@H](O)[C@H](NCCCNC(=O)[C@@H](NC(=O)OCc4ccccc4)[C@H](C)O)C(=O)OC(C)(C)C)[C@@H](O)[C@H]3O)c2=O)cc1 (stereo partly drawn) [Example 44, tert-Butyl (5S,12S)-12-[(R)-[(3S,4R,5R)-3,4-dihydroxy-5-(3-(4-methoxybenzyl)-2,4-dioxo-3,4-dihydro-1(2H)-pyrimidinyl)tetrahydro-2-furanyl](hydroxy)methyl]-5-[(1S)-1-hydroxyethyl]-3,6-dioxo-1-phenyl-2-oxa-4,7,11-triazatridecan-13-oate]
MIC (CNS GC 4538; CNS GC 4538, read-out: MIC): > 128 µg/mL | MIC (E. faecalis GC 4555; [1]): 128 µg/mL (≈ 163 µM) | MIC (E. faecalis GC 2242; [2]): 64 µg/mL (≈ 81.4 µM) | MIC (S. aureus GC 2216; [3]): > 128 µg/mL | MIC (CNS GC 4547; CNS GC 4547, read-out: MIC): > 128 µg/mL | MIC (S. aureus GC 4536; [4]): > 128 µg/mL | MIC (CNS GC 4537; CNS GC 4537, read-out: MIC): > 128 µg/mL | MIC (S. aureus GC 1131; [5]): > 128 µg/mL | MIC (E. faecalis GC 842; [6]): 128 µg/mL (≈ 163 µM) | MIC (E. coli GC 4560; [7]): 128 µg/mL (≈ 163 µM) | MIC (S. marcescens GC 4077; [8]): 128 µg/mL (≈ 163 µM) | MIC (E. coli GC 2203; [9]): > 128 µg/mL | MIC (M. morganii GC 4531; [10]): 128 µg/mL (≈ 163 µM) | MIC (P. aeruginosa GC 4532; [11]): 128 µg/mL (≈ 163 µM) | MIC (K. pneumoniae GC 4534; [12]): > 128 µg/mL | MIC (C. albicans GC 3066; [13]): 128 µg/mL (≈ 163 µM) | MIC (E. coli GC 4559; [14]): > 128 µg/mL | MIC (E. coli GC 3226; [15]): > 128 µg/mL | MIC (E. cloacae GC 3783; [16]): > 128 µg/mL | MIC (P. aeruginosa GC 2214; [17]): 128 µg/mL (≈ 163 µM)

COc1ccc(Cn2c(=O)ccn([C@@H]3OC([C@H](O)[C@H](NCCCNC(=O)[C@@H](N)[C@H](C)O)C(=O)OC(C)(C)C)[C@@H](O)[C@H]3O)c2=O)cc1 (stereo partly drawn) [Example 45, tert-Butyl (2S,3R)-2-[(3-{[(2S,3S)-2-amino-3-hydroxybutanoyl]amino}propyl)amino]-3-[(3S,4R,5R)-3,4-dihydroxy-5-(3-(4-methoxybenzyl)-2,4-dioxo-3,4-dihydro-1(2H)-pyrimidinyl)-tetrahydro-2-furanyl]-3-hydroxypropanoate]
MIC (CNS GC 4538; CNS GC 4538, read-out: MIC): > 128 µg/mL | MIC (E. faecalis GC 4555; [1]): > 128 µg/mL | MIC (E. faecalis GC 2242; [2]): 128 µg/mL (≈ 196 µM) | MIC (S. aureus GC 2216; [3]): > 128 µg/mL | MIC (CNS GC 4547; CNS GC 4547, read-out: MIC): > 128 µg/mL | MIC (S. aureus GC 4536; [4]): > 128 µg/mL | MIC (CNS GC 4537; CNS GC 4537, read-out: MIC): > 128 µg/mL | MIC (S. aureus GC 1131; [5]): > 128 µg/mL | MIC (E. faecalis GC 842; [6]): > 128 µg/mL | MIC (E. coli GC 4560; [7]): > 128 µg/mL | MIC (S. marcescens GC 4077; [8]): > 128 µg/mL | MIC (E. coli GC 2203; [9]): > 128 µg/mL | MIC (M. morganii GC 4531; [10]): 128 µg/mL (≈ 196 µM) | MIC (P. aeruginosa GC 4532; [11]): 128 µg/mL (≈ 196 µM) | MIC (K. pneumoniae GC 4534; [12]): > 128 µg/mL | MIC (C. albicans GC 3066; [13]): 128 µg/mL (≈ 196 µM) | MIC (E. coli GC 4559; [14]): > 128 µg/mL | MIC (E. coli GC 3226; [15]): > 128 µg/mL | MIC (E. cloacae GC 3783; [16]): > 128 µg/mL | MIC (P. aeruginosa GC 2214; [17]): 128 µg/mL (≈ 196 µM)

COc1ccc(Cn2c(=O)ccn([C@@H]3OC([C@H](O)[C@H](NCCCNC(=O)[C@@H](NC(=O)[C@H](CCCNC(=N)N[N+](=O)[O-])NC(=O)N[C@H](C(=O)OCc4ccccc4)C(C)C)C(C)O)C(=O)O)[C@@H](O)[C@H]3O)c2=O)cc1 (stereo partly drawn) [Example 47, (4S,8S,11S,18S)-18-[(R)-[(3S,4R,5R)-3,4-Dihydroxy-5-(3-(4-methoxybenzyl)-2,4-dioxo-3,4-dihydro-1(2H)-pyrimidinyl)tetrahydro-2-furanyl](hydroxy)methyl]-8-(3-{[(2,2-dioxido-2lambda˜1˜-diazanyl)(imino)methyl]amino}propyl)-11-[(1S)-1-hydroxyethyl]-4-isopropyl-3,6,9,12-tetraoxo-1-phenyl-2-oxa-5,7,10,13,17-pentaazanonadecan-19-oic acid]
MIC (CNS GC 4538): > 128 µg/mL | MIC (E. faecalis GC 4555; [1]): 128 µg/mL (≈ 124 µM) | MIC (E. faecalis GC 2242; [2]): 64 µg/mL (≈ 62.1 µM) | MIC (S. aureus GC 2216; [3]): > 128 µg/mL | MIC (CNS GC 4547): > 128 µg/mL | MIC (S. aureus GC 4536; [4]): > 128 µg/mL | MIC (CNS GC 4537): > 128 µg/mL | MIC (S. aureus GC 1131; [5]): > 128 µg/mL | MIC (E. faecalis GC 842; [6]): 128 µg/mL (≈ 124 µM) | MIC (E. coli GC 4560; [7]): 128 µg/mL (≈ 124 µM) | MIC (S. marcescens GC 4077; [8]): 128 µg/mL (≈ 124 µM) | MIC (E. coli GC 2203; [9]): > 128 µg/mL | MIC (M. morganii GC 4531; [10]): 128 µg/mL (≈ 124 µM) | MIC (P. aeruginosa GC 4532; [11]): 128 µg/mL (≈ 124 µM) | MIC (K. pneumoniae GC 4534; [12]): > 128 µg/mL | MIC (C. albicans GC 3066; [13]): 128 µg/mL (≈ 124 µM) | MIC (E. coli GC 4559; [14]): > 128 µg/mL | MIC (E. coli GC 3226; [15]): > 128 µg/mL | MIC (E. cloacae GC 3783; [16]): > 128 µg/mL | MIC (P. aeruginosa GC 2214; [17]): > 128 µg/mL
